Experimental data: patent US20090292012A1, “Therapeutic Agent” (priority 2005, published 2009)

Tests used:
mouse = test: Single oral dose toxicity in mouse; type: in vivo; conditions: 1 g/kg weight
Experimental: No toxicity is found even when the above-mentioned effective ingredient used in the present invention is administered in an effective dose for the exhibition of its action in a living body.

ACAT = test: Determination of inhibitory activity for ACAT, rat liver microsome, [3H]oleoyl-CoA; type: biochemical; conditions: relative to 10 μM FR179254 set as 100%
Experimental: Four of Sprague-Dawley rats were bred for one week and thereafter sacrificed, and the livers were immediately excised. The excised livers were shortly washed with cold brine, and thereafter immersed (25 mL/a rat) into sucrose buffer (0.3 M sucrose, 50 mM Tris-HCl, 1 mM EDTA, 50 mM NaCl, pH 7.4). The resulting livers were homogenized, and the procedures of centrifuging at 10,000×g for 30 minutes and removing the formed precipitates were repeated twice for the homogenized livers. The resulting supernatant was centrifuged at 105,000×g for 70 minutes, and the precipitates were collected and suspended in an appropriate amount of 100 mM phosphate buffer (pH 7.4). The suspension was again suspended in the phosphate buffer so as to have a protein concentration of 10 mg/ml, and EDTA was added thereto so as to have a final concentration of 1 mM. Thereafter, the suspension was subjected to frozen storage at −80° C. until being used.
The enzymatic activity of ACAT was determined according to the partially modified method of Lee et al. (Planta Med., 2004, 70, 678-679).
In a 1.5 mL Eppendorf tube, 1 μL of a dimethyl sulfoxide solution of each subject sample was added to a 92 μL of a reaction aqueous solution (0.05 M potassium phosphate, 1 mM dithiothreitol, 9 mg/mL fatty acid-free bovine serum albumin, 200 μg/mL cholesterol, pH 7.4) containing 1.5 μL of the rat liver microsome prepared in item (1) of Example 2 so as to have a final concentration described in Table 2, and the mixture was incubated at 37° C. for 30 minutes. Here, the purified ethanol extract fraction from a leaf of Peucedanum japonicum -Fr. […] The radioactivity was determined with a liquid scintillation counter LS6500 (manufactured by Beckmann) using 150 μL of the resulting supernatant with Ultima Gold (manufactured by PerkinElmer Life Sciences Inc., 6013329) as a scintillation cocktail. […] The inhibitory activity for ACAT (%) of each of the subject samples was calculated in accordance with the following formula setting an inhibitory ratio upon addition of 10 μM FR179254 which is a positive control as 100%. […]

RAW 264.7 cells = test: Determination of anti-foaming in macrophage (cholesterol ester accumulation with Ac-LDL); type: cell-based; conditions: Ac-LDL 20 μg/mL, 24 hours
Experimental: Macrophage introduces a modified LDL (such as acetyl LDL (Ac-LDL) into a cell to synthesize cholesterol ester, thereby foaming. An anti-foaming activity for the macrophage with each subject sample was determined.
RAW 264.7 cells (ATCC TIB 71) were suspended in Dulbecco's modified Eagle's medium (manufactured by Sigma, D5796) containing 10% fetal bovine serum (manufactured by Cambrex Corporation), so as to have a concentration of 4×10^5 cells/ml, and the suspension was put to each well of a 24-well microtiter plate in an amount of 1 ml per well. The cells were cultured at 37° C. overnight in the presence of 5% carbon dioxide gas. Next, the medium was exchanged with UltraCHO media (manufactured by Cambrex Corporation, B2724) and 2 μL of the dimethyl sulfoxide solution of each of the subject samples prepared in the above-mentioned Preparation Examples was added to each well so as to have a concentration shown in the following Table 1. Here, the purified ethanol extract fraction from a leaf of Peucedanum japonicum -Fr. 2-2 was used for 3′-acetoxy-4′-senecioyloxy-3′,4′-dihydroseselin in Table 1. Further, Ac-LDL (manufactured by Biomedical Technology, Inc., BT-906) at a final concentration of 20 μg/mL was added to each well, and each mixture was cultured for 24 hours. Here, there were set a group without addition of Ac-LDL and a group with addition of dimethyl sulfoxide as controls.
The total amount of cholesterol in a cell and the amount of free cholesterol were determined to calculate the amount of cholesterol ester as an index for anti-foaming for macrophage.
After the termination of the culture, the medium was removed, and the cells were washed with a 0.3% (w/v) BSA (manufactured by Sigma, A-8022) containing phosphate buffered saline and further washed with a phosphate buffered saline. The amount 0.5 mL of a solvent of hexane:isopropanol=3:2 was added to the cells. The mixture was allowed to stand at room temperature for 30 minutes, and thereafter the supernatant was collected. The procedures were repeated again, and a total of 1 mL of the supernatant was concentrated to dryness. The precipitate was dissolved in 30 μL of isopropanol, and thereafter the total amount of cholesterol contained in 10 μL of the resulting solution was determined with Cholesterol E-Test (manufactured by Wako Pure Chemical Industries, Ltd., 439-17501) and the amount of free cholesterol was determined with Free Cholesterol E-Test (manufactured by Wako Pure Chemical Industries, Ltd., 435-35801). All of the determinations were carried out twice. The amount of biosynthesis of cholesterol ester was determined by subtracting the amount of free cholesterol from the total amount of cholesterol. The anti-foaming activity was calculated in accordance with the following formula. […]

CC(=O)OC1C(OC(=O)C=C(C)C)c2c(ccc3ccc(=O)oc23)OC1(C)C (centres unmarked) [3′-acetoxy-4′-senecioyloxy-3′,4′-dihydroseselin]
deaths after oral administration (mouse): no cases of deaths are found
Inhibitory Activity for ACAT (%) (ACAT; final concentration 25 μM): 40%
Inhibitory Activity for ACAT (%) (ACAT; final concentration 50 μM): 65%
Inhibitory Activity for ACAT (%) (ACAT; final concentration 100 μM): 87%
inhibition at 20 µM (RAW 264.7 cells; Mus musculus, RAW264.7, final concentration 20 μM): 19%
inhibition at 40 µM (RAW 264.7 cells; Mus musculus, RAW264.7, final concentration 40 μM): 98%
Anti-Foaming Activity (%) (RAW 264.7 cells; final concentration 0.1 %): 34%
Anti-Foaming Activity (%) (RAW 264.7 cells; final concentration 0.2 %): 72%
